According to patent US20150299188A1, “HETEROCYCLIC COMPOUND” (priority 2012, published 2015):

Test system: FLAP (5-lipoxygenase activating protein)
Assay: In vitro binding test: displacement of [3H]-7-chloro-3-(5-((3-fluoropyridin-2-yl)methoxy)-2-methylphenyl)-3,4-dihydroquinazolin-2(1H)-one from Sf9 microsome fractions
Parameters: species or system human and mouse
Details: Sf9 microsome fractions expressing FLAP; 100% = radioligand binding with 10 μM sodium 3-(3-(tert-butylsulfanyl)-1-(4-chlorobenzyl)-5-isopropyl-1H-indol-2-yl)-2,2-dimethylpropanoate, 0% = DMSO; test compound concentration not given
Outline: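 Sf9 microsomes expressing human or mouse FLAP (2 μg/mL) preincubated with compound 10 min at room temperature, then 120 nM tritiated quinazolinone ligand added for 60 min; buffer 100 mM Tris-HCl pH 7.5 with NaCl, EDTA, DTT, glycerol, Tween20. Bound ligand filtered and counted by scintillation; 10 μM indole propanoate defines 100% inhibition, DMSO 0%.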

Structure (SMILES) | inhibitory rate (%)
Cc1noc(C)c1-c1ncc(Cl)c2c1NC(=O)N(c1cc3c(cc1Cl)CCC(c1ncccc1F)O3)C2 (stereo not shown) [Example 126, 5-chloro-3-(6-chloro-2-(3-fluoropyridin-2-yl)-3,4-dihydro-2H-chromen-7-yl)-8-(3,5-dimethyl-1,2-oxazol-4-yl)-3,4-dihydropyrido[3,4-d]pyrimidin-2(1H)-one] | 113%
Cc1cc2c(cc1N1Cc3c(Cl)cnc(-c4c(C)nn(C)c4C)c3NC1=O)OC(c1ncccc1F)CC2 (stereo not shown) [Example 13, 5-chloro-3-(2-(3-fluoropyridin-2-yl)-6-methyl-3,4-dihydro-2H-chromen-7-yl)-8-(1,3,5-trimethyl-1H-pyrazol-4-yl)-3,4-dihydropyrido[3,4-d]pyrimidin-2(1H)-one] | 101%
COC(=O)c1ccc2c(c1)NC(=O)N(c1cc(OCc3c(F)cccc3F)ccc1C)C2 [Example 171, methyl 3-(5-((2,6-difluorobenzyl)oxy)-2-methylphenyl)-2-oxo-1,2,3,4-tetrahydroquinazoline-7-carboxylate] | 99%
Cc1ccc(OCc2c(F)cccc2F)cc1N1Cc2ccc(C#N)cc2NC1=O [Example 204, 3-(5-((2,6-difluorobenzyl)oxy)-2-methylphenyl)-2-oxo-1,2,3,4-tetrahydroquinazoline-7-carbonitrile] | 103%
Cc1ccc(OCc2ncccc2F)cc1N1Cc2c(Cl)cccc2N(CC2CC2)C1=O [Example 284, 5-chloro-1-(cyclopropylmethyl)-3-(5-((3-fluoropyridin-2-yl)methoxy)-2-methylphenyl)-3,4-dihydroquinazolin-2(1H)-one] | 105%
Cc1cc2c(cc1N1Cc3c(F)cnc(-c4cnn(C)c4)c3NC1=O)OC(c1ncccc1F)CC2 (stereo not shown) [Example 167, 5-fluoro-3-(2-(3-fluoropyridin-2-yl)-6-methyl-3,4-dihydro-2H-chromen-7-yl)-8-(1-methyl-1H-pyrazol-4-yl)-3,4-dihydropyrido[3,4-d]pyrimidin-2(1H)-one] | 95%
CCOC(=O)c1nccc2c1CN(c1cc3c(cc1C)CCC(c1ncccc1F)O3)C(=O)N2 (stereo not shown) [Example 30, ethyl 3-(2-(3-fluoropyridin-2-yl)-6-methyl-3,4-dihydro-2H-chromen-7-yl)-2-oxo-1,2,3,4-tetrahydropyrido[4,3-d]pyrimidine-5-carboxylate] | 105%
Cc1ccc(OCc2c(F)cccc2F)cc1N1Cc2ccc(C(C)(C)O)cc2NC1=O [Example 180, 3-(5-((2,6-difluorobenzyl)oxy)-2-methylphenyl)-7-(2-hydroxypropan-2-yl)-3,4-dihydroquinazolin-2(1H)-one] | 81%
Cc1ccc(OCc2ncc(F)cc2F)cc1N1Cc2ccccc2NC1=O [Example 247, 3-(5-((3,5-difluoropyridin-2-yl)methoxy)-2-methylphenyl)-3,4-dihydroquinazolin-2(1H)-one] | 99%
O=c1[nH]c2ccccc2c(=O)n1-c1ccc2c(c1)OC(c1c(F)cccc1F)CC2 (stereo not shown) [Example 326, 3-(2-(2,6-difluorophenyl)-3,4-dihydro-2H-chromen-7-yl)quinazoline-2,4(1H,3H)-dione] | 95%
Cc1ccc(OCc2ncccn2)cc1N1Cc2c(Cl)cccc2NC1=O [Example 274, 5-chloro-3-(2-methyl-5-(pyrimidin-2-ylmethoxy)phenyl)-3,4-dihydroquinazolin-2(1H)-one] | 106%
Cc1cc2c(cc1N1Cc3c(Cl)cnc(C4CC4)c3NC1=O)OC(c1ncccc1F)CC2 (stereo not shown) [Example 142, 5-chloro-8-cyclopropyl-3-(2-(3-fluoropyridin-2-yl)-6-methyl-3,4-dihydro-2H-chromen-7-yl)-3,4-dihydropyrido[3,4-d]pyrimidin-2(1H)-one] | 102%
COC(=O)c1ccc2c(c1)NC(=O)N(c1cc(OCc3cc(F)ccc3F)ccc1C)C2 [Example 199, methyl 3-(5-((2,5-difluorobenzyl)oxy)-2-methylphenyl)-2-oxo-1,2,3,4-tetrahydroquinazoline-7-carboxylate] | 60%
Cc1ccc(OCc2ncccc2F)cc1-n1c(=O)[nH]c2cc(Cl)ccc2c1=O [Example 351, 7-chloro-3-(5-((3-fluoropyridin-2-yl)methoxy)-2-methylphenyl)quinazoline-2,4(1H,3H)-dione] | 107%
Cc1ccc(OCc2ncccc2F)cc1-n1c(=O)[nH]c2cccc(F)c2c1=O [Example 359, 5-fluoro-3-(5-((3-fluoropyridin-2-yl)methoxy)-2-methylphenyl)quinazoline-2,4(1H,3H)-dione] | 97%
CCc1ccc(OCc2ncccc2F)cc1N1Cc2ccccc2NC1=O [Example 220, 3-(2-ethyl-5-((3-fluoropyridin-2-yl)methoxy)phenyl)-3,4-dihydroquinazolin-2(1H)-one] | 106%

Structure (SMILES) | inhibitory rate (%)
O=C1CNCCN1c1cc2c(c(C3CC3)n1)CN(c1cc3c(cc1Cl)CCC(c1ncccc1F)O3)C(=O)N2 (stereo not shown) [Example 125, 3-(6-chloro-2-(3-fluoropyridin-2-yl)-3,4-dihydro-2H-chromen-7-yl)-5-cyclopropyl-7-(2-oxopiperazin-1-yl)-3,4-dihydropyrido[4,3-d]pyrimidin-2(1H)-one] | 95%
Cc1ccc(OCc2c(F)cccc2F)cc1N1Cc2ccccc2NC1=O [Example 170, 3-(5-((2,6-difluorobenzyl)oxy)-2-methylphenyl)-3,4-dihydroquinazolin-2(1H)-one] | 91%
Cc1cc2c(cc1N1Cc3c(ccnc3C(F)(F)F)NC1=O)OC(c1ncccc1F)CC2 (stereo not shown) [Example 4, 3-(2-(3-fluoropyridin-2-yl)-6-methyl-3,4-dihydro-2H-chromen-7-yl)-5-(trifluoromethyl)-3,4-dihydropyrido[4,3-d]pyrimidin-2(1H)-one] | 103%
O=C1Nc2cn(CC3CC3)nc2CN1c1cc(OCc2ncccc2F)ccc1Br [Example 360, 6-(2-bromo-5-((3-fluoropyridin-2-yl)methoxy)phenyl)-2-(cyclopropylmethyl)-2,4,6,7-tetrahydro-5H-pyrazolo[4,3-d]pyrimidin-5-one] | 105%
CC(C)(O)c1ccc2c(c1)NC(=O)N(c1cc(OCc3c(F)cccc3F)ccc1F)C2 [Example 233, 3-(5-((2,6-difluorobenzyl)oxy)-2-fluorophenyl)-7-(2-hydroxypropan-2-yl)-3,4-dihydroquinazolin-2(1H)-one] | 87%
O=C1Nc2cc(-c3noc(=S)[nH]3)nc(C3CC3)c2CN1c1cc2c(cc1Cl)CCC(c1ncccc1F)O2 (stereo not shown) [Example 118, 3-(6-chloro-2-(3-fluoropyridin-2-yl)-3,4-dihydro-2H-chromen-7-yl)-5-cyclopropyl-7-(5-thioxo-4,5-dihydro-1,2,4-oxadiazol-3-yl)-3,4-dihydropyrido[4,3-d]pyrimidin-2(1H)-one] | 104%
Cc1cc2c(cc1N1Cc3c(cc(OCC(F)F)nc3C3CC3)NC1=O)OC(c1ncccc1F)CC2 (stereo not shown) [Example 159, 5-cyclopropyl-7-(2,2-difluoroethoxy)-3-(2-(3-fluoropyridin-2-yl)-6-methyl-3,4-dihydro-2H-chromen-7-yl)-3,4-dihydropyrido[4,3-d]pyrimidin-2(1H)-one] | 97%
Cn1cc(-c2ncc(C3CC3)c3c2NC(=O)N(c2cc4c(cc2Cl)CCC(c2ncccc2F)O4)C3)cn1 (stereo not shown) [Example 163, 3-(6-chloro-2-(3-fluoropyridin-2-yl)-3,4-dihydro-2H-chromen-7-yl)-5-cyclopropyl-8-(1-methyl-1H-pyrazol-4-yl)-3,4-dihydropyrido[3,4-d]pyrimidin-2(1H)-one] | 98%
O=C1Nc2ccccc2CN1c1cc(OCc2ncccc2F)ccc1F [Example 300, 3-(2-fluoro-5-((3-fluoropyridin-2-yl)methoxy)phenyl)-3,4-dihydroquinazolin-2(1H)-one] | 105%
Cc1ccc(OCc2c(F)cccc2F)cc1N1Cc2ccc(C3=NC(C)(C)C(=O)O3)cc2NC1=O [Example 210, 3-(5-((2,6-difluorobenzyl)oxy)-2-methylphenyl)-7-(4,4-dimethyl-5-oxo-4,5-dihydro-1,3-oxazol-2-yl)-3,4-dihydroquinazolin-2(1H)-one] | 96%
O=C1Nc2c(C3=CCOCC3)ncc(Cl)c2CN1c1cc2c(cc1Cl)CCC(c1ncccc1F)O2 (stereo not shown) [Example 127, 5-chloro-3-(6-chloro-2-(3-fluoropyridin-2-yl)-3,4-dihydro-2H-chromen-7-yl)-8-(3,6-dihydro-2H-pyran-4-yl)-3,4-dihydropyrido[3,4-d]pyrimidin-2(1H)-one] | 98%
Cc1ccc(OCc2ccccc2Cl)cc1N1Cc2ccccc2NC1=O [Example 173, 3-(5-((2-chlorobenzyl)oxy)-2-methylphenyl)-3,4-dihydroquinazolin-2(1H)-one] | 70%
Cc1cc2c(cc1N1Cc3c(cc(C4CN(C(=O)n5ccnc5)C4)nc3C3CC3)NC1=O)OC(c1ncccc1F)CC2 (stereo not shown) [Example 49, 5-cyclopropyl-3-(2-(3-fluoropyridin-2-yl)-6-methyl-3,4-dihydro-2H-chromen-7-yl)-7-(1-(1H-imidazol-1-ylcarbonyl)azetidin-3-yl)-3,4-dihydropyrido[4,3-d]pyrimidin-2(1H)-one] | 120%
Cc1ccc(OCc2ncccc2F)cc1N1Cc2ccc(C(=O)NCC(F)(F)F)cc2NC1=O [Example 303, 3-(5-((3-fluoropyridin-2-yl)methoxy)-2-methylphenyl)-2-oxo-N-(2,2,2-trifluoroethyl)-1,2,3,4-tetrahydroquinazoline-7-carboxamide] | 108%
Cc1ccc(OCc2ncccc2F)cc1N1Cc2ccc(C(=O)Nc3ccccc3)cc2NC1=O [Example 273, 3-(5-((3-fluoropyridin-2-yl)methoxy)-2-methylphenyl)-2-oxo-N-phenyl-1,2,3,4-tetrahydroquinazoline-7-carboxamide] | 100%
